Patent US20250057990A1, “TISSUE-SPECIFIC MANGANESE BASED MRI CONTRAST AGENTS” (CASE WESTERN RESERVE UNIVERSITY, priority 2021, published 2025)
“And” between values parts separate entries of the source, which are not always exact repeats. Equal entries are not always repeated. Where two headings read alike, the source gives them in different places.

Tests used:
[1] = from literature, cited from earlier work
[2] = from literature, cited from earlier work; remark: listed apart in the source
[3] = in vivo; cited from earlier work
[4] = Relaxivity measurements of Mn(EOB-PC2A) in DPBS; type: physicochemical
Method: (§1) Solutions of Mn(EOB-PC2A) were prepared in DPBS or saline containing 4.5% human serum albumin. The T1 and T2 relaxation times at 1.5T were measured using a Bruker Minispec Relaxometer ([…], 37° C.; Bruker, Billerica, MA, USA). The T1 relaxation times were also measured at 3T using an MRS3000 3T small animal scanner from MR solutions (MR Solutions, Surrey, UK) with a T1 mapping sequence (TR=10 ms, TE=4 ms, T1=50 ms, FOV=40×40 mm, slice thickness=2 mm, number of slices=1, Nav=1, matrix=256×128, flip angle=8°). The r1 and r2 relaxivities were calculated as the slope of the 1/T1 and 1/T2 vs. Mn concentration, respectively.

[5] = Relaxivity measurements of Mn(EOB-PC2A) in saline containing 4.5% human serum albumin; type: physicochemical; conditions: 4.5% human serum albumin in saline, 1.5T, 37° C.
Method: as §1

[6] = tested on: HepG2 hepatoma cells; assay: Cell viability analysis (CCK8) in HepG2 cells; type: cell-based; conditions: 48 hours, physiologically relevant concentrations
Method: (§2) DU145 cells were purchased from American Type Culture Collection (ATCC, Manassas, VA, USA). HepG2 cells were kindly gifted by Dr. Zhenghong Lee at Case Western Reserve University (CWRU, Cleveland, OH, USA). All cell lines were cultured in Dulbecco's Modified Eagle's Medium (DMEM, Gibco, Amarillo, TX, USA) supplemented with 1% penicillin-streptomycin (Gibco) and 10% fetal bovine serum (Gibco) and incubated at 37° C. and 5% CO2.
(§3) Cells in culture were trypsonized and counted. In a 96-well plate, cells were seeded at 5,000 cells per well and incubated for 1 day to adhere and proliferate. Cells were then incubated with increasing concentrations of the liver-targeted MBCA for 48 hours. To measure cell viability, a CCK8 assay was performed according to the manufacturer's instructions (Dojindo Molecular Technologies, Inc., Kumamoto, JP). Percent cell viability was calculated as the signal intensity of the treated well divided by the signal intensity of the untreated control wells after accounting for background signal.

[7] = tested on: DU145 prostate cancer cells; assay: Cell viability analysis (CCK8) in DU145 cells; type: cell-based; conditions: 48 hours, physiologically relevant concentrations
Method: as §2, §3

[8] = tested on: HepG2 hepatoma cells; assay: Cell uptake analysis (ICP-OES manganese content); type: cell-based; conditions: 2 mM, 2 hours
Method: Cells were plated in a 6-well plate and incubated for 1 day to adhere and proliferate. Cells were then incubated for 2 hours with 2 mM Mn(EOB-PC2A), after which they were washed three times with DPBS, trypsonized, and pelleted. Cells were resuspended in 250 μL of 75% HNO3 for 48 hours for dissolution, after which 4.75 mL distilled water was added. The samples were centrifuged at 4,000 rpm for 30 minutes to pellet any non-dissolved components and the supernatant was collected. Manganese content in the cell solution was quantified by inductively coupled plasma optical emission spectroscopy (ICP-OES 730, Agilent Technologies, Santa Clara, CA, USA).

[9] = tested on: C57BL6 mice; assay: T1-weighted axial fast spin-echo MRI of the liver; type: in vivo; conditions: 0.060 mmol/kg i.v.
Method: (§4) All animal and imaging procedures were performed according to an approved Institutional Animal Care and Use Committee protocol. Male C57BL6 mice were purchased from Jackson Labs (Bar Harbor, ME, USA), housed in an animal facility.
(§5) All imaging experiments were performed using the MRS3000 3T small animal scanner. Mice (n=5) were anesthetized with 2% isoflurane, the tail vein was cannulized with a catheter, followed by transferal to the heated mouse bed of the MRI scanner. Mice were monitored with a respiration monitor while in the scanner. Before and at 15 and 30 minutes after administration of 60 μmol/kg Mn(EOB-PC2A), mice were imaged with a T1w axial fast spin-echo sequence with respiratory gating (TR=305 ms, TE=11 ms, FOV=40×40 mm, slice thickness=1 mm, number of slices=15, Nav=4, matrix=256×248) and a 3D FLASH sequence (TR=16 ms, […], T1=1000 ms, FOV=70×35 mm, slice thickness=35 mm, number of slices=1, Nav=3, matrix=256×128, flip angle=25°). Mice underwent an additional T1w axial spin-echo and 3D FLASH acquisitions at 24 hours post-injection.
(§6) MR images were exported in DICOM format, and processed and analyzed using FIJI software (https://imagej.net/software/fiji/). The signal-to-noise ratio [stissue/σnoise] and contrast-to-noise ratio [(stissue−smuscle)/σnoise] were calculated for the relevant tissues of each mouse at every time point. Subtraction images were produced for the 3D FLASH images by first dividing the pixel values of the images of each acquisition by the scaling factor assigned by the MRS software, and then subtracting the corresponding pre-contrast baseline images from the post-contrast images. Maximum intensity projections and 3-dimensional projections were produced for the raw and subtraction 3D FLASH images in FIJI using the “Z-project” function and the “3D-project” function with interpolation, respectively.

[10] = tested on: C57BL6 mice; assay: 3D FLASH whole-body MRI; type: in vivo; parameters: key to Delta SNR: change in SNR, where SNR = s_tissue/σ_noise; conditions: for Delta SNR: 0.060 mmol/kg
Method: as §4, §5, §6

[11] = blood plasma (human plasma), 1.5 T
[12] = 15 minutes post-injection, relative to pre-contrast baseline
[13] = 30 minutes post-injection, relative to pre-contrast baseline
[14] = 24 hours post-injection, relative to pre-contrast baseline

## O=C([O-])CN(CCN(CC(=O)[O-])CC(=O)[O-])CCN(CC(=O)[O-])C(COCc1ccccc1)C(=O)[O-].[Gd+3].[H+].[H+] (centres unmarked) [Gadobenate, gadobenate]
[1]; 1.5 T
  r1 relaxivity Water/DPBS: 4.0 mM⁻¹ s⁻¹
[2]; [11]
  r1 relaxivity Plasma/Serum: 6.3 mM⁻¹ s⁻¹

## CCOc1ccc(C[C@@H](CN(CCN(CC(=O)[O-])CC(=O)[O-])CC(=O)[O-])N(CC(=O)[O-])CC(=O)[O-])cc1.[Gd+3].[H+].[H+] [Gadoxetate, gadoxetate]
[1]; 1.5 T
  r1 relaxivity Water/DPBS: 4.7 mM⁻¹ s⁻¹
[2]; [11]
  r1 relaxivity Plasma/Serum: 6.9 mM⁻¹ s⁻¹
[3]
  time of peak enhancement after administration: around 20 minutes

## Mn(EOB-PC2A)
[4]; 1.5T, 37° C.
  r1 relaxivity Water/DPBS: 2.83 mM⁻¹ s⁻¹ and 2.8 mM⁻¹ s⁻¹
[4]; 3 T
  r1 relaxivity: 2.61 mM⁻¹ s⁻¹
[5]
  r1 relaxivity Plasma/Serum: 5.85 mM⁻¹ s⁻¹ and 5.9 mM⁻¹ s⁻¹
[6]
  cytotoxicity: no cytotoxicity
[7]
  cytotoxicity: no cytotoxicity
[8]
  intracellular concentration of Mn(II) relative to untreated cells: 17 times
[9]; [12]
  normalized CNR of the liver: 3.20
  normalized SNR of the liver: 1.41
[9]; [13]
  normalized CNR of the liver: 3.12
  normalized SNR of the liver: 1.42
[9]; [14]
  liver CNR: 1.16
  liver SNR: 0.86
[9]; liver MR signal returns to pre-contrast baseline
  washout time after injection: ≤ 24 h
[10]; Bladder, 15 minutes post-injection
  Delta SNR: 157.07 ± 39.02
[10]; Bladder, 30 minutes post-injection
  Delta SNR: 199.96 ± 25.86
[10]; Bladder, 24 hours post-injection
  Delta SNR: −2.58 ± 5.42
[10]; Heart, 15 minutes post-injection
  Delta SNR: −0.04 ± 5.85
[10]; Heart, 30 minutes post-injection
  Delta SNR: −2.28 ± 7.11
[10]; Heart, 24 hours post-injection
  Delta SNR: 5.73 ± 16.25
[10]; Kidney, 15 minutes post-injection
  Delta SNR: 27.74 ± 7.66
[10]; Kidney, 30 minutes post-injection
  Delta SNR: 21.33 ± 8.28
[10]; Kidney, 24 hours post-injection
  Delta SNR: 3.87 ± 5.62
[10]; Liver, 15 minutes post-injection
  Delta SNR: 51.48 ± 17.20
[10]; Liver, 30 minutes post-injection
  Delta SNR: 29.19 ± 14.28
[10]; Liver, 24 hours post-injection
  Delta SNR: 1.36 ± 6.44
[10]; Lung, 15 minutes post-injection
  Delta SNR: −0.27 ± 0.44
[10]; Lung, 30 minutes post-injection
  Delta SNR: −0.41 ± 0.31
[10]; Lung, 24 hours post-injection
  Delta SNR: −0.43 ± 0.71
[10]; Muscle, 15 minutes post-injection
  Delta SNR: −3.63 ± 3.21
[10]; Muscle, 30 minutes post-injection
  Delta SNR: −4.07 ± 5.11
[10]; Muscle, 24 hours post-injection
  Delta SNR: −6.62 ± 10.13
[10]; enhancement in gallbladder, particularly 30 minutes post-injection
  biliary elimination: eliminated via biliary excretion
[10]; signal enhancement in kidneys and urinary bladder, 15 and 30 minutes post-injection
  renal elimination of unbound agent: rapidly excreted via renal filtration

## O=C([O-])CN1CCNCCN(CC(=O)[O-])Cc2cccc(n2)C1.[Mn+2] [Mn-3,9-PC2A]
[1]; water, 1.41 T
  r1 relaxivity Water/DPBS: 2.2 mM⁻¹ s⁻¹
[2]; Seronorm, 1.41 T
  r1 relaxivity Plasma/Serum: 3.3 mM⁻¹ s⁻¹

## O=C([O-])CN1CCNCc2cccc(n2)CN(CC(=O)[O-])CC1.[Mn+2] [Mn-3,6-PC2A]
[1]; water, 1.41 T
  r1 relaxivity Water/DPBS: 2.4 mM⁻¹ s⁻¹
[2]; Seronorm, 1.41 T
  r1 relaxivity Plasma/Serum: 3.0 mM⁻¹ s⁻¹

## mangafodipir
[1]; 1.5 T
  r1 relaxivity Water/DPBS: 1.6 mM⁻¹ s⁻¹
[2]; [11]
  r1 relaxivity Plasma/Serum: 3.6 mM⁻¹ s⁻¹
